Test results published in patent US12521393B2, “Cytotoxicity targeting chimeras for CCR2-expressing cells” (GLAXOSMITHKLINE INTELLECTUAL PROPERTY DEVELOPMENT LIMITED, priority 2021, dated 2026).

Experiments:
[1] = tested on: CCR2 expressing cells (CD11b+Ly6c+Hi) in peripheral blood; assay: In vivo depletion assay, flow cytometry of peripheral blood (Example 201); design: species or system human CCR2 knock-in mice (C57 background); details: hCCR2 knock-in mice, IV 0.1 mpk compound + 10 mpk anti-cotinine antibody (SEQ ID NO: 13/14), peripheral blood at 48 hr
In short: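 Flow cytometry of blood collected at study termination quantified percent depletion of CD11b+Ly6c+Hi cells and CCR2 expression, using surface markers CD45, CD3, CD11b, Ly6C, human CCR2 after Fc block, with 7AAD viability stain. Compound given in saline:DMSO:PBS formulation, optionally combined with anti-cotinine antibody, incubated 30 min before administration.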

[2] = target: anti-cotinine antibody (SEQ ID NO: 11/12, rabbit variable region with human IgG1 Fc DE mutation); assay: SPR binding of anti-cotinine antibody to ARM compounds, Biacore T200, 37° C. (Example 202); details: SPR Biacore T200, 37° C., pH 7.4, antibody SEQ ID NO: 11/12 captured on protein A; Kd in molar
In short: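 Run at 37 °C in 10 mM HEPES pH 7.4, 150 mM NaCl, 0.005% P20, 1% DMSO, with compounds titrated from 200 nM (five 3-fold steps) over protein A–captured antibody. A 1:1 kinetic model on double-referenced data gave rate constants, Kd as koff/kon and residence time 1/koff; results as pKd, run-averaged.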

[3] = tested on: endogenous target monocytes in human PBMC; assay: PBMC ex vivo monocyte depletion flow cytometry assay (Example 200); format: cell-based; details: with anti-cotinine antibody (SEQ ID NO: 11/12), 18-24 hours, EC50 in molar, read-out: Ex Vivo Depletion Assay pEC50 (converted)
In short: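 Monocyte depletion is reported as pEC50, averaged or given individually across runs, and read by flow cytometry staining CD45, CD14 and CD4 with a viability dye. Compounds, diluted four-fold over 11 points from 1 mM DMSO stocks, were combined with 30 μg/mL Fc-enhanced anti-cotinine antibody and human PBMC, then incubated 18-24 h at 37° C.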

| Structure (SMILES) | % Depletion of CCR2 expressing cells [1] [%] | pKd of Antibody for ARM Compound of Formula (I) [2] | EC50 [3] [nM] |
| --- | --- | --- | --- |
| CN1C(=O)C[C@H](C(=O)NCCO[C@H]2CC[C@@H](OCCCC(=O)N[C@H]3CC[C@H](C(=O)N[C@@H]4C[C@H](NC(C)(C)C)CC[C@@H]4N4CC[C@H](Nc5ncnc6ccc(C(F)(F)F)cc56)C4=O)CC3)CC2)[C@H]1c1cccnc1 [Example 2, (2S,3S)-N-(2-(((1S,4R)-4-(4-(((1R,4R)-4-(((1R,2S,5R)-5-(tert-Butylamino)-2-((S)-2-oxo-3-((6-(trifluoromethyl)quinazolin-4-yl)amino)pyrrolidin-1-yl)cyclohexyl)carbamoyl)cyclohexyl)amino)-4-oxobutoxy)cyclohexyl)oxy)ethyl)-1-methyl-5-oxo-2-(pyridin-3-yl)pyrrolidine-3-carboxamide] | 92.3 | 9.4775 | 0.398 |
| CC(C)N(C)[C@@H]1CC[C@H](N2CC[C@H](Nc3ncnc4ccc(C(F)(F)F)cc34)C2=O)[C@H](NC(=O)[C@H]2CC[C@@H](NC(=O)CCCO[C@H]3CC[C@@H](OCCNC(=O)[C@H]4CC(=O)N(C)[C@@H]4c4cccnc4)CC3)CC2)C1 [Example 3, (2S,3S)-N-(2-(((1S,4R)-4-(4-(((1S,4S)-4-(((1R,2S,5R)-5-(Isopropyl(methyl)amino)-2-((S)-2-oxo-3-((6-(trifluoromethyl)quinazolin-4-yl)amino)pyrrolidin-1-yl)cyclohexyl)carbamoyl)cyclohexyl)amino)-4-oxobutoxy)cyclohexyl)oxy)ethyl)-1-methyl-5-oxo-2-(pyridin-3-yl)pyrrolidine-3-carboxamide] | 87 | 9.2795 | 0.501 |
| CC(C)N(C)[C@@H]1CC[C@H](N2CC[C@H](Nc3ncnc4ccc(C(F)(F)F)cc34)C2=O)[C@H](NC(=O)[C@H]2CC[C@H](NC(=O)CCCO[C@H]3CC[C@@H](OCCNC(=O)[C@H]4CC(=O)N(C)[C@@H]4c4cccnc4)CC3)CC2)C1 [Example 4, (2S,3S)-N-(2-(((1S,4R)-4-(4-(((1R,4R)-4-(((1R,2S,5R)-5-(Isopropyl(methyl)amino)-2-((S)-2-oxo-3-((6-(trifluoromethyl)quinazolin-4-yl)amino)pyrrolidin-1-yl)cyclohexyl)carbamoyl)cyclohexyl)amino)-4-oxobutoxy)cyclohexyl)oxy)ethyl)-1-methyl-5-oxo-2-(pyridin-3-yl)pyrrolidine-3-carboxamide] | 78.8 | 9.526 | 1 |
| CC(C)N(C)[C@@H]1CC[C@H](N2CC[C@H](Nc3ncnc4ccc(C(F)(F)F)cc34)C2=O)[C@H](NC(=O)CCOCCNC(=O)CCCO[C@H]2CC[C@@H](OCCNC(=O)[C@H]3CC(=O)N(C)[C@@H]3c3cccnc3)CC2)C1 [Example 6, (2S,3S)-N-(2-(((1s,4R)-4-(4-((2-(3-(((1R,2S,5R)-5-(Isopropyl(methyl)amino)-2-((S)-2-oxo-3-((6-(trifluoromethyl)quinazolin-4-yl)amino)pyrrolidin-1-yl)cyclohexyl)amino)-3-oxopropoxy)ethyl)amino)-4-oxobutoxy)cyclohexyl)oxy)ethyl)-1-methyl-5-oxo-2-(pyridin-3-yl)pyrrolidine-3-carboxamide] | 82 | 9.282 | 0.2 |
| CC(C)N(C)[C@@H]1CC[C@H](N2CC[C@H](Nc3ncnc4ccc(C(F)(F)F)cc34)C2=O)[C@H](NC(=O)[C@H]2CC[C@H](CNC(=O)CCCC(=O)NCCCOCCCNC(=O)[C@H]3CC(=O)N(C)[C@@H]3c3cccnc3)CC2)C1 [Example 20, N1-(((1R,4r)-4-(((1R,2S,5R)-5-(Isopropyl(methyl)amino)-2-((S)-2-oxo-3-((6-(trifluoromethyl)quinazolin-4-yl)amino)pyrrolidin-1-yl)cyclohexyl)carbamoyl)cyclohexyl)methyl)-N5-(3-(3-((2S,3S)-1-methyl-5-oxo-2-(pyridin-3-yl)pyrrolidine-3-carboxamido)propoxy)propyl)glutaramide] | 79 | 8.8705 | 0.316 |
| CN1C(=O)C[C@H](C(=O)NCCOCCOCCOCCC(=O)N[C@H]2CC[C@H](C(=O)N[C@@H]3C[C@H](NC(C)(C)C)CC[C@@H]3N3CC[C@H](Nc4ncnc5ccc(C(F)(F)F)cc45)C3=O)CC2)[C@H]1c1cccnc1 [Example 31, (2S,3S)-N-(2-(2-(2-(3-(((1S,4s)-4-(((1R,2S,5R)-5-(tert-Butylamino)-2-((S)-2-oxo-3-((6-(trifluoromethyl)quinazolin-4-yl)amino)pyrrolidin-1-yl)cyclohexyl)carbamoyl)cyclohexyl)amino)-3-oxopropoxy)ethoxy)ethoxy)ethyl)-1-methyl-5-oxo-2-(pyridin-3-yl)pyrrolidine-3-carboxamide] | 94.9 | 9.3015 | 3.16 |
| CC(C)N(C)[C@@H]1CC[C@H](N2CC[C@H](Nc3ncnc4ccc(C(F)(F)F)cc34)C2=O)[C@H](NC(=O)[C@H]2CC[C@H](CNC(=O)CCOCCOCCOCCNC(=O)[C@H]3CC(=O)N(C)[C@@H]3c3cccnc3)CC2)C1 [Example 32, (2S,3S)-N-(1-((1S,4s)-4-(((1R,2S,5R)-5-(Isopropyl(methyl)amino)-2-((S)-2-oxo-3-((6-(trifluoromethyl)quinazolin-4-yl)amino)pyrrolidin-1-yl)cyclohexyl)carbamoyl)cyclohexyl)-3-oxo-6,9,12-trioxa-2-azatetradecan-14-yl)-1-methyl-5-oxo-2-(pyridin-3-yl)pyrrolidine-3-carboxamide] | 83 | 9.1825 | 0.398 |
| CC(C)N(C)[C@@H]1CC[C@H](N2CC[C@H](Nc3ncnc4ccc(C(F)(F)F)cc34)C2=O)[C@H](NC(=O)CCOCCNC(=O)CCOCCNC(=O)CCOCCNC(=O)[C@H]2CC(=O)N(C)[C@@H]2c2cccnc2)C1 [Example 46, (2S,3S)-N-(20-(((1R,2S,5R)-5-(Isopropyl(methyl)amino)-2-((S)-2-oxo-3-((6-(trifluoromethyl)quinazolin-4-yl)amino)pyrrolidin-1-yl)cyclohexyl)amino)-6,13,20-trioxo-3,10,17-trioxa-7,14-diazaicosyl)-1-methyl-5-oxo-2-(pyridin-3-yl)pyrrolidine-3-carboxamide] | 96 | 9.074 | 0.501 |
| CC(C)N(C)[C@@H]1CC[C@H](N2CC[C@H](Nc3ncnc4ccc(C(F)(F)F)cc34)C2=O)[C@H](NC(=O)COCCNC(=O)CCOCCNC(=O)CCOCCNC(=O)[C@H]2CC(=O)N(C)[C@@H]2c2cccnc2)C1 [Example 47, (2S,3S)-N-(1-(((1R,2S,5R)-5-(Isopropyl(methyl)amino)-2-((S)-2-oxo-3-((6-(trifluoromethyl)quinazolin-4-yl)amino)pyrrolidin-1-yl)cyclohexyl)amino)-1,7,14-trioxo-3,10,17-trioxa-6,13-diazanonadecan-19-yl)-1-methyl-5-oxo-2-(pyridin-3-yl)pyrrolidine-3-carboxamide] | 73 | 9.051 | 0.316 |
| CC(C)N(C)[C@@H]1CC[C@H](N2CC[C@H](Nc3ncnc4ccc(C(F)(F)F)cc34)C2=O)[C@H](NC(=O)[C@H]2C[C@@H](NC(=O)CCOC[C@H]3CC[C@H](COCCNC(=O)[C@H]4CC(=O)N(C)[C@@H]4c4cccnc4)CC3)C2)C1 [Example 55, (2S,3S)-N-(2-(((1S,4S)-4-((3-(((1S,3S)-3-(((1R,2S,5R)-5-(Isopropyl(methyl)amino)-2-((S)-2-oxo-3-((6-(trifluoromethyl)quinazolin-4-yl)amino)pyrrolidin-1-yl)cyclohexyl)carbamoyl)cyclobutyl)amino)-3-oxopropoxy)methyl)cyclohexyl)methoxy)ethyl)-1-methyl-5-oxo-2-(pyridin-3-yl)pyrrolidine-3-carboxamide] | 76.2 | 9.4085 | 0.126 |
| CC(C)N(C)[C@@H]1CC[C@H](N2CC[C@H](Nc3ncnc4ccc(C(F)(F)F)cc34)C2=O)[C@H](NC(=O)[C@H]2CC[C@@H](NC(=O)CNC(=O)CCOCCOCCNC(=O)[C@H]3CC(=O)N(C)[C@@H]3c3cccnc3)CC2)C1 [Example 83, (2S,3S)-N-(2-(2-(3-((2-(((1S,4s)-4-(((1R,2S,5R)-5-(Isopropyl(methyl)amino)-2-((S)-2-oxo-3-((6-(trifluoromethyl)quinazolin-4-yl)amino)pyrrolidin-1-yl)cyclohexyl)carbamoyl)cyclohexyl)amino)-2-oxoethyl)amino)-3-oxopropoxy)ethoxy)ethyl)-1-methyl-5-oxo-2-(pyridin-3-yl)pyrrolidine-3-carboxamide] | 67 | 9.302 | – |
